The values that follow come from US10570141B2, “Substituted pyrrolopyrimidine CDK inhibitor, pharmaceutical composition containing same and use thereof” (CHIA TAI TIANQING PHARMACEUTICAL GROUP CO., LTD., priority 2016, dated 2020).

Data set [1] has as its system Colo-205 cells. The data set can be described thus: Inhibition of proliferation of colon cancer cell line Colo-205 (Cell-Titer Glo). As to conditions: 72 hours incubation, cell viability, read-out: IC50(Colo205). The data set is classed as cell-based, human. As for the experimental part:
(§1) Colo-205 (Crown Bioscience Inc.) and MCF7 (Beijing Jinzijing Biology Medicine Technology Co., Ltd.) cells were inoculated into a 96-well plate (Corning, Item No.: 3599) at a density of 1000 cells/well, and incubated overnight. A compound at different concentrations (10000 nM, 3000 nM, 1000 nM, 300 nM, 100 nM, 30 nM, 10 nM, 3 nM, 1 nM, 0.3 nM, 0 nM, final concentration of DMSO: 0.1%) was added on the next day, and the incubation was continued for additional 72 hours. The culture medium was sucked with a vacuum pump, 50 ul of Cell-Titer Glo reagent (Promega, Item No.: G7572) was added to each well, and shaken for 10 min. Chemiluminescent signals were collected by EnVision® Multilabel Reader (PerkinElmer Inc.) to detect the cell viability and calculate the half maximal inhibitory concentration of the compound for inhibiting cell proliferation.

Data set [2] relates to MCF7 cells. The data set can be described thus: Inhibition of proliferation of breast cancer cell line MCF7 (Cell-Titer Glo). To be noted: 72 hours incubation, cell viability. The data set is classed as cell-based, human. As to the method:
as §1

For data set [3] the following is noted: rat, in vivo, po, 5 mg/kg.
Method: (§4) 3 Healthy adult male rats were used for each tested compound. The tested compound was suspended in 20% sulfobutyl ether-β-cyclodextrin at a concentration of 1 mg/mL, and then was intragastrically administered at a single dose of 5 mg/kg (administered volume: 5 mL/kg). The animals to be intragastrically administered were fasted overnight prior to the experiment, i.e., fasted from 10 h prior to the administration to 4 h after the administration, and blood samples were collected in 0.25, 0.5, 1, 2, 4, 6, 8 and 24 h after the intragastric administration. About 0.3 mL of whole blood was collected from the orbital venous plexus, and put in a heparin anticoagulant tube. The sample was centrifuged at 4° C. at 4000 rpm for 5 min. The plasma was transferred to a centrifuge tube, and kept at −80° C. until analysis. Concentration of the tested compound in the plasma sample was analyzed using non-validated liquid chromatography-tandem mass spectrometry (LC-MS/MS). Plasma concentration-time data of individual animals were analyzed using WinNonlin (Professional Edition, Version 6.3; Pharsight Corporation) software. A non-compartment model was used for concentration analysis.
The target in data set [4] is CDK4/CyclinD3 (Homo sapiens (Human), UniProt P11802). The data set can be described thus: In vitro kinase activity inhibition assay of CDK4/CyclinD3 (LANCE method). To be noted: recombinant CDK4/CyclinD3 2 nM, ATP 200 μM, 1 h room temperature. The data set is classed as biochemical. An excerpt: (§2) A method for in vitro kinase activity inhibition assay of CDK4/CyclinD3 and CDK6/CyclinD3 is established as follows:
(§3) LANCE method of PerkinElmer Inc. was used in the assay, and recombinant CDK4/CyclinD3 (Item No.: 04-105) and CDK6/CyclinD3 (Item No.: 04-107) kinases were purchased from Cama Biosciences, Inc. Substrate ULight-MBP (Item No.: TRF0109) and Eu-labeled anti-MBP antibody (Item No.: TRF0201) were purchased from PerkinElmer. HEPES PH7.5 (Item No.: #15630080), DTT (Item No.: # D1532), MgCl2 (Item No.: # AM9530G), EGTA (Item No.: # E1219), and EDTA (Item No.: # AM9260G) were purchased from Life Technology. Firstly, a 1× buffer solution A (50 mM HEPES, PH 7.5, 10 mM MgCl2, 1 mM EGTA, 0.01% Tween 20 and 2 mM DTT) was prepared. A compound to be tested was dissolved in DMSO to 1 mM, serially diluted with DMSO, and then diluted 25-fold with the buffer solution A (final concentration of DMSO: 1%). CDK4/CyclinD3 and CDK6/CyclinD3 were diluted respectively with the buffer solution A. Finally, the buffer solution A was used to prepare the substrate and ATP. 4 μl of CDK4/CyclinD3 (final concentration: 2 nM) or CDK6/CyclinD3 (final concentration: 4 nM), 2 μl of the diluted compound, and 4 μl of a mixture of the substrate (final concentration: 50 nM) and ATP (final concentration: 200 μM) were added to reaction wells, and the resulting mixture was kept at room temperature to react for 1 h. Then, an EDTA solution was added to terminate the reaction, and Eu-labeled anti-MBP antibody was added and the resulting mixture was incubated at room temperature for additional 1 h. EnVision was used to read fluorescent signals (excitation wavelength: […], emission wavelength: […]).
On the technique in general: Time-resolved FRET reads energy transfer from a long-lived donor to a nearby acceptor.

Data set [5] concerns the target CDK6/CyclinD3 (Homo sapiens (Human), UniProt Q00534). The data set can be described thus: In vitro kinase activity inhibition assay of CDK6/CyclinD3 (LANCE method). The data set is classed as biochemical. To be noted: recombinant CDK6/CyclinD3 4 nM, ATP 200 μM, 1 h room temperature.
From the text: as §2, §3

Data set [6] in a line: Pharmacokinetics evaluation in rats after intragastric administration. To be noted: male, rat, plasma, po, 5 mg/kg.
Method: as §4

Molecules are shown by their SMILES. Structures can show the parent of a compound that is named as a salt. Where two headings read alike, the source gives them in different places.

Chain of CDK6/CyclinD3 (Q00534 whole entry): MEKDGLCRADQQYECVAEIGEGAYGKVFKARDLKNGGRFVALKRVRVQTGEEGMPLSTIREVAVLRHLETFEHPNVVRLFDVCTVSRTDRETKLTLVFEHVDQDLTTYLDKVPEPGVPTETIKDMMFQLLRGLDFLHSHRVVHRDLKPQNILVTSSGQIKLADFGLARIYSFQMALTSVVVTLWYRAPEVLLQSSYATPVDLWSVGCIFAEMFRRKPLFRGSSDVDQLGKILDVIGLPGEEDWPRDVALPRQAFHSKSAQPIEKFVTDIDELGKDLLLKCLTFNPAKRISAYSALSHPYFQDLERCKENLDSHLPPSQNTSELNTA
Chain of CDK6/CyclinD3 (P30281 whole entry partner): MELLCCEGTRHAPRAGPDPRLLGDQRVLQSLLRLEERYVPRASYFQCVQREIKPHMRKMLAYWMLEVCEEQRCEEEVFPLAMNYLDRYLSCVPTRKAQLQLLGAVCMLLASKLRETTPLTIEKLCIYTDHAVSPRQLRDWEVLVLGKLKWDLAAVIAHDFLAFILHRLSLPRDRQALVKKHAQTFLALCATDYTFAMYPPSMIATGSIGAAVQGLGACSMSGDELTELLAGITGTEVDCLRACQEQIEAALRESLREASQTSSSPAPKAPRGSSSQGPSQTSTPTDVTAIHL
Chain of CDK4/CyclinD3 (P11802 whole entry): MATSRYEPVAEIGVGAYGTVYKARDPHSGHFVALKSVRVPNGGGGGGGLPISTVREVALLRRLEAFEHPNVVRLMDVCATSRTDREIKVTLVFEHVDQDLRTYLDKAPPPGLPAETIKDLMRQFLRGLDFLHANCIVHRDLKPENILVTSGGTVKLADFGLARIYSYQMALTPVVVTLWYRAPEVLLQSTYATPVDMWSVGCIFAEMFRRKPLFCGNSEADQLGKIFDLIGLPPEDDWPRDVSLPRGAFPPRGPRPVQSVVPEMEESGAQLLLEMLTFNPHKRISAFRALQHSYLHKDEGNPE
Chain of CDK4/CyclinD3 (P30281 whole entry partner): as the sequence (P30281 whole entry partner) above

Consider `CN(C)C(=O)c1cc2cnc(Nc3ccc(N4CCNCC4)cn3)nc2n1C1CCCC1.Cl` [Comparative Example 1, 7-cyclopentyl-2-(5-(piperazin-1-yl-pyridin-2-ylamino)-7H-pyrrolo[2,3-d]pyrimidine-6-carboxylic acid dimethylamide (ribociclib) hydrochloride], for which the concentration for half-maximal inhibition (IC50) (usually the point on the concentration scale where inhibition reaches its midpoint) in data set [1] was 2690 nM; in data set [2] it was 326 nM.
Consider `CN(C)C(=O)c1cc2cnc(Nc3ccc(N4CCNCC4)cn3)nc2n1C1CCCC1.Cl` [Comparative Example 1], for which, in data set [3], the AUC(0-inf) (commonly the area under the concentration-time curve extrapolated to infinity) is 120 ng·h/mL; the Cmax (in general, the maximum level reached in the sampled fluid or tissue) is given as 15.8 ng/mL; the T1/2 stood at 4.25 h; the Tmax (usually the time from dosing to the highest level) was 2.67 h.
For `CS(=O)(=O)c1cc2cnc(Nc3ccc(N4CCNCC4)cn3)nc2n1C1CCCC1` [Example 1, 7-cyclopentyl-6-methylsulfonyl-N-(5-(piperazin-1-yl)pyridin-2-yl)-7H-pyrrolo[2,3-d]pyrimidin-2-amine hydrochloride], in data set [4], the IC50 is 0.8 nM. In data set [5], the IC50 is 5.7 nM. Besides, the IC50 in data set [1] (Homo sapiens) was 271 nM. Also, the IC50 in data set [2] (Homo sapiens) was 114 nM. Moreover, in data set [6], the AUC(0-inf) came to 1960 ng·h/mL; the Cmax turned out to be 255 ng/mL; the Tmax worked out at 1.33 h; the half-life (in general, how long it takes for the measured level to halve) is 434 min.
`CCS(=O)(=O)c1cc2cnc(Nc3ccc(N4CCNCC4)cn3)nc2n1C1CCCC1` [Example 2, 7-cyclopentyl-6-ethylsulfonyl-N-(5-(piperazin-1-yl)pyridin-2-yl)-7H-pyrrolo[2,3-d]pyrimidin-2-amine hydrochloride]: the IC50 in data set [4] was determined as 2.12 nM; in data set [5], 21 nM.
The corresponding values for `CN(C)C1CCN(c2ccc(Nc3ncc4cc(S(C)(=O)=O)n(C5CCCC5)c4n3)nc2)CC1` [Example 3, 7-cyclopentyl-6-methylsulfonyl-N-(5-(4-(dimethylamino)piperidin-1-yl)pyridin-2-yl)-7H-pyrrolo[2,3-d]pyrimidin-2-amine hydrochloride] are 3.4 nM and 18.7 nM.
Turning to `CS(=O)(=O)c1cc2cnc(Nc3ccc(C4=CCNCC4)cn3)nc2n1C1CCCC1.Cl` [Example 4, 7-cyclopentyl-6-methylsulfonyl-N-(5-(1,2,3,6-4H-pyridin-4-yl)pyridin-2-yl)-7H-pyrrolo[2,3-d]pyrimidin-2-amine hydrochloride], the IC50 in data set [4] amounted to 2.57 nM. The half-maximal inhibitory concentration (IC50) in data set [5] is 11.1 nM. Besides, in data set [1] (Homo sapiens), the IC50 came out at 312 nM. The midpoint of inhibition in data set [2] (Homo sapiens), the IC50, lay at 175 nM. In data set [6], the area under the curve AUC(0-inf) was determined as 889 ng·h/mL, the concentration peaked (Cmax) at 90 ng/mL, the Tmax was 3 h and the half-life is 197 min.
For the molecule `CS(=O)(=O)c1cc2cnc(Nc3ccc(C4CCNCC4)cn3)nc2n1C1CCCC1` [Example 5, 7-cyclopentyl-6-methylsulfonyl-N-(5-(piperidin-4-yl)pyridin-2-yl)-7H-pyrrolo[2,3-d]pyrimidin-2-amine hydrochloride], the IC50 in data set [4] was determined as 1.46 nM; in data set [5] it was 9.85 nM; in data set [1] (Homo sapiens) it was 470 nM.
Regarding `CN(C)C(=O)c1cc2cnc(Nc3ccc(C4=CCNCC4)cn3)nc2n1C1CCCC1.Cl` [Example 6, 7-cyclopentyl-6-N,N-dimethylcarbamoyl-N-(5-(1,2,3,6-4H-pyridin-4-yl)pyridin-2-yl)-7H-pyrrolo[2,3-d]pyrimidin-2-amine hydrochloride], the IC50 in data set [4] stood at 2.37 nM; in data set [5] it was 30.6 nM; in data set [1] (Homo sapiens), 1260 nM; in data set [2] (Homo sapiens) it was 333 nM. Besides, the AUC(0-inf) in data set [6] came out at 627 ng·h/mL. Also, the highest concentration (Cmax) in data set [6] came out at 74.3 ng/mL. For the same molecule, the time to peak (Tmax) in data set [6] stood at 3.33 h. The same molecule had a half-life in data set [6] of 226 min.
